From patent publication US20230085307A1, “PYRIDAZINONE COMPOUND AND HERBICIDE” (NISSAN CHEMICAL CORPORATION, priority 2019, published 2023)

Tests used:
[1] = system: velvetleaf; assay: Test Example 5: herbicidal effect by foliage application, plastic box (Table 20, symbol M); assay type: in vivo, velvetleaf (Abutilon theophrasti); conditions: for M: velvetleaf, herbicidal effect grade: foliage application, three weeks after application
Procedure, shortened: (§1)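 Sow seeds spot-wise in sterilized diluvial soil; cover with ~1.5 cm soil. Grow 14 days in greenhouse, 25° C. to 30° C. Spray foliage with emulsion diluted to predetermined amount. Rate effect after 3 weeks.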

[2] = system: persian speedwell; assay: Test Example 5: herbicidal effect by foliage application, plastic box (Table 20, symbol R); assay type: in vivo, Persian speedwell (Veronica persica); conditions: for R: persian speedwell, herbicidal effect grade: foliage application, three weeks after application
Procedure, shortened: as §1

[3] = system: late watergrass; assay: Test Example 2: herbicidal activity, application during weed generation under submerged conditions (Table 17, symbol A); assay type: in vivo, late watergrass (Echinochloa oryzicola); conditions: application during weed generation, submerged conditions
Procedure, shortened: (§2)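 Mixed weed seedlings in alluvial soil under a 4 cm water layer, greenhouse-grown at 25–30° C. Compound given as a diluted emulsion into the floodwater at the 1–2 leaf stage; response graded after three weeks.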

[4] = system: Japanese bulrush; assay: Test Example 2: herbicidal activity, application during weed generation under submerged conditions (Table 17, symbol B); assay type: in vivo, Japanese bulrush (Schoenoplectus juncoides); conditions: application during weed generation, submerged conditions
Protocol: [Test Example 2] Herbicidal Activity Test by Application during Weed Generation under Submerged Conditions After alluvial soil was placed into 1/10000 are of Wagner pot, water was poured and mixed to form a submerged condition having a water depth of 4 cm. Seeds of late watergrass, Japanese bulrush, and oval-leafed pondweed were sowed in a mixed manner in the aforementioned pot, and the pot was placed in a greenhouse at 25° C. to 30° C. for growth of the plants. When late watergrass, Japanese bulrush, and oval-leafed pondweed were grown to one leaf stage to two leaf stage, the emulsion agent of the compound of the present invention prepared according to Formulation Example 2 was diluted with water so as to achieve a predetermined herbicide amount, and the diluted emulsion agent was applied to the surface of the water. Three weeks after the herbicide application, the effect of the herbicide on each plant was evaluated according to the criteria of Test Example 1.

[5] = system: wild oat; assay: Test Example 5: herbicidal effect by foliage application, plastic box (Table 20, symbol I); assay type: in vivo, wild oat (Avena fatua); conditions: for I: wild oat, herbicidal effect grade: foliage application, three weeks after application
Procedure, shortened: as §1

[6] = system: chickweed; assay: Test Example 5: herbicidal effect by foliage application, plastic box (Table 20, symbol P); assay type: in vivo, common chickweed (Stellaria media); conditions: for P: chickweed, herbicidal effect grade: foliage application, three weeks after application
Procedure, shortened: as §1

[7] = system: oval-leafed pondweed; assay: Test Example 2: herbicidal activity, application during weed generation under submerged conditions (Table 17, symbol C); assay type: in vivo, oval-leafed pondweed (Monochoria vaginalis); conditions: application during weed generation, submerged conditions
Procedure, shortened: as §2

[8] = system: barnyard grass; assay: Test Example 3: herbicidal effect by foliage application, Wagner pot (Table 18, symbol H); assay type: in vivo, barnyard grass (Echinochloa crus-galli)
Procedure, shortened: (§3)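 Plants were sown in alluvial soil held under 0.1–0.5 cm standing water and grown 14 days in a greenhouse at 25–30 °C. An emulsifiable formulation, water-diluted to the set dose, was then sprayed onto the foliage, and effects were scored three weeks later using previously defined criteria.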

[9] = system: southern crabgrass; assay: Test Example 5: herbicidal effect by foliage application, plastic box (Table 20, symbol F); assay type: in vivo, southern crabgrass (Digitaria ciliaris); conditions: for F: southern crabgrass, herbicidal effect grade: foliage application, three weeks after application
Procedure, shortened: as §1

[10] = system: redroot pigweed; assay: Test Example 5: herbicidal effect by foliage application, plastic box (Table 20, symbol N); assay type: in vivo, redroot pigweed (Amaranthus retroflexus); conditions: for N: redroot pigweed, herbicidal effect grade: foliage application, three weeks after application
Procedure, shortened: as §1

[11] = system: blackgrass; assay: Test Example 5: herbicidal effect by foliage application, plastic box (Table 20, symbol J); assay type: in vivo, blackgrass (Alopecurus myosuroides); conditions: for J: blackgrass, herbicidal effect grade: foliage application, three weeks after application
Procedure, shortened: as §1

[12] = system: lambsquarters; assay: Test Example 5: herbicidal effect by foliage application, plastic box (Table 20, symbol O); assay type: in vivo, lambsquarters (Chenopodium album); conditions: for O: lambsquarters, herbicidal effect grade: foliage application, three weeks after application
Procedure, shortened: as §1

[13] = system: green foxtail; assay: Test Example 5: herbicidal effect by foliage application, plastic box (Table 20, symbol G); assay type: in vivo, green foxtail (Setaria viridis); conditions: for G: green foxtail, herbicidal effect grade: foliage application, three weeks after application
Procedure, shortened: as §1

[14] = system: barnyard grass; assay: Test Example 5: herbicidal effect by foliage application, plastic box (Table 20, symbol H); assay type: in vivo, barnyard grass (Echinochloa crus-galli); conditions: for H: barnyard grass, herbicidal effect grade: foliage application, three weeks after application
Procedure, shortened: as §1

[15] = system: rice flat sedge; assay: Test Example 3: herbicidal effect by foliage application, Wagner pot (Table 18, symbol E); assay type: in vivo, rice flat sedge (Cyperus iria)
Procedure, shortened: as §3

[16] = system: Chinese sprangletop; assay: Test Example 3: herbicidal effect by foliage application, Wagner pot (Table 18, symbol D); assay type: in vivo, chinese sprangletop (Leptochloa chinensis)
Procedure, shortened: as §3

[17] = system: windgrass; assay: Test Example 5: herbicidal effect by foliage application, plastic box (Table 20, symbol L); assay type: in vivo, windgrass (Apera spica-venti); conditions: for L: windgrass, herbicidal effect grade: foliage application, three weeks after application
Procedure, shortened: as §1

[18] = system: Italian ryegrass; assay: Test Example 5: herbicidal effect by foliage application, plastic box (Table 20, symbol K); assay type: in vivo, Italian ryegrass (Lolium multiflorum); conditions: for K: Italian ryegrass, herbicidal effect grade: foliage application, three weeks after application
Procedure, shortened: as §1

[19] = amount of applied herbicide 320 g/ha
[20] = amount of applied herbicide 285 g/ha
[21] = 320 g/ha, foliage application after 14-day growth, evaluated three weeks after application

Structure (SMILES): CCCC(=O)Oc1c(C)nn(C)c(=O)c1-c1c(-c2ccc(Cl)cc2)sc2cc(F)ccc12 [3-016]
- M: velvetleaf, herbicidal effect grade ([1]; 320 g/ha): 3 (Herbicidal rate of 40% or more and less than 70%)
- R: persian speedwell, herbicidal effect grade ([2]; 320 g/ha): 4 (Herbicidal rate of 70% or more and less than 90%)
- herbicidal effect rating, A: late watergrass ([3]; AAH 320 g/ha): 3 (Herbicidal rate of 40% or more and less than 70%)
- herbicidal effect rating, B: Japanese bulrush ([4]; AAH 320 g/ha): 0 (Herbicidal rate of 5% or less (almost no effect))
- I: wild oat, herbicidal effect grade ([5]; 320 g/ha): 1 (Herbicidal rate of 5% or more and less than 20%)
- P: chickweed, herbicidal effect grade ([6]; 320 g/ha): 3 (Herbicidal rate of 40% or more and less than 70%)
- herbicidal effect rating, C: oval-leafed pondweed ([7]; AAH 320 g/ha): 0 (Herbicidal rate of 5% or less (almost no effect))
- herbicidal effect on H: barnyard grass [8, 19]: 3 (Herbicidal rate of 40% or more and less than 70%)
- F: southern crabgrass, herbicidal effect grade ([9]; 320 g/ha): 0 (Herbicidal rate of 5% or less (almost no effect))
- N: redroot pigweed, herbicidal effect grade ([10]; 320 g/ha): 1 (Herbicidal rate of 5% or more and less than 20%)
- J: blackgrass, herbicidal effect grade ([11]; 320 g/ha): 0 (Herbicidal rate of 5% or less (almost no effect))
- O: lambsquarters, herbicidal effect grade ([12]; 320 g/ha): 3 (Herbicidal rate of 40% or more and less than 70%)
- G: green foxtail, herbicidal effect grade ([13]; 320 g/ha): 0 (Herbicidal rate of 5% or less (almost no effect))
- H: barnyard grass, herbicidal effect grade ([14]; 320 g/ha): 0 (Herbicidal rate of 5% or less (almost no effect))
- herbicidal effect on E: rice flat sedge [15, 19]: 4 (Herbicidal rate of 70% or more and less than 90%)
- herbicidal effect on D: Chinese sprangletop [16, 19]: 4 (Herbicidal rate of 70% or more and less than 90%)
- L: windgrass, herbicidal effect grade ([17]; 320 g/ha): 5 (Herbicidal rate of 90% or more (almost completely withered))
- K: Italian ryegrass, herbicidal effect grade ([18]; 320 g/ha): 0 (Herbicidal rate of 5% or less (almost no effect))

Structure (SMILES): CCOC(=O)OC(C)Oc1c(C)nn(C)c(=O)c1-c1c(-c2ccccc2OC)sc2cc(F)ccc12 (stereo not drawn) [3-029]
- M: velvetleaf, herbicidal effect grade ([1]; 285 g/ha): 5 (Herbicidal rate of 90% or more (almost completely withered))
- R: persian speedwell, herbicidal effect grade ([2]; 285 g/ha): 0 (Herbicidal rate of 5% or less (almost no effect))
- herbicidal effect rating, A: late watergrass ([3]; AAH 285 g/ha): 0 (Herbicidal rate of 5% or less (almost no effect))
- herbicidal effect rating, B: Japanese bulrush ([4]; AAH 285 g/ha): 3 (Herbicidal rate of 40% or more and less than 70%)
- I: wild oat, herbicidal effect grade ([5]; 285 g/ha): 1 (Herbicidal rate of 5% or more and less than 20%)
- P: chickweed, herbicidal effect grade ([6]; 285 g/ha): 4 (Herbicidal rate of 70% or more and less than 90%)
- herbicidal effect rating, C: oval-leafed pondweed ([7]; AAH 285 g/ha): 1 (Herbicidal rate of 5% or more and less than 20%)
- herbicidal effect on H: barnyard grass [8, 20]: 5 (Herbicidal rate of 90% or more (almost completely withered))
- F: southern crabgrass, herbicidal effect grade ([9]; 285 g/ha): 3 (Herbicidal rate of 40% or more and less than 70%)
- N: redroot pigweed, herbicidal effect grade ([10]; 285 g/ha): 5 (Herbicidal rate of 90% or more (almost completely withered))
- J: blackgrass, herbicidal effect grade ([11]; 285 g/ha): 4 (Herbicidal rate of 70% or more and less than 90%)
- O: lambsquarters, herbicidal effect grade ([12]; 285 g/ha): 3 (Herbicidal rate of 40% or more and less than 70%)
- G: green foxtail, herbicidal effect grade ([13]; 285 g/ha): 5 (Herbicidal rate of 90% or more (almost completely withered))
- H: barnyard grass, herbicidal effect grade ([14]; 285 g/ha): 4 (Herbicidal rate of 70% or more and less than 90%)
- herbicidal effect on E: rice flat sedge [15, 20]: 5 (Herbicidal rate of 90% or more (almost completely withered))
- herbicidal effect on D: Chinese sprangletop [16, 20]: 3 (Herbicidal rate of 40% or more and less than 70%)
- L: windgrass, herbicidal effect grade ([17]; 285 g/ha): 4 (Herbicidal rate of 70% or more and less than 90%)
- K: Italian ryegrass, herbicidal effect grade ([18]; 285 g/ha): 3 (Herbicidal rate of 40% or more and less than 70%)

Structure (SMILES): CCCC(=O)Oc1c(C)nn(C)c(=O)c1-c1c(-c2ccc(Cl)cc2)sc2c(Cl)cccc12 [4-018]
- herbicidal effect on M: velvetleaf (evaluation grade 0-5) [1, 21]: 4 (Herbicidal rate of 70% or more and less than 90%)
- herbicidal effect on R: persian speedwell (evaluation grade 0-5) [2, 21]: 4 (Herbicidal rate of 70% or more and less than 90%)
- herbicidal effect rating, A: late watergrass ([3]; AAH 320 g/ha): 0 (Herbicidal rate of 5% or less (almost no effect))
- herbicidal effect rating, B: Japanese bulrush ([4]; AAH 320 g/ha): 3 (Herbicidal rate of 40% or more and less than 70%)
- herbicidal effect on I: wild oat (evaluation grade 0-5) [5, 21]: 3 (Herbicidal rate of 40% or more and less than 70%)
- herbicidal effect on P: chickweed (evaluation grade 0-5) [6, 21]: 5 (Herbicidal rate of 90% or more (almost completely withered))
- herbicidal effect rating, C: oval-leafed pondweed ([7]; AAH 320 g/ha): 3 (Herbicidal rate of 40% or more and less than 70%)
- herbicidal effect on barnyard grass (H) ([8]; 320 g/ha): 4 (Herbicidal rate of 70% or more and less than 90%)
- herbicidal effect on F: southern crabgrass (evaluation grade 0-5) [9, 21]: 0 (Herbicidal rate of 5% or less (almost no effect))
- herbicidal effect on N: redroot pigweed (evaluation grade 0-5) [10, 21]: 3 (Herbicidal rate of 40% or more and less than 70%)
- herbicidal effect on J: blackgrass (evaluation grade 0-5) [11, 21]: 4 (Herbicidal rate of 70% or more and less than 90%)
- herbicidal effect on O: lambsquarters (evaluation grade 0-5) [12, 21]: 0 (Herbicidal rate of 5% or less (almost no effect))
- herbicidal effect on G: green foxtail (evaluation grade 0-5) [13, 21]: 0 (Herbicidal rate of 5% or less (almost no effect))
- herbicidal effect on H: barnyard grass (evaluation grade 0-5) [14, 21]: 0 (Herbicidal rate of 5% or less (almost no effect))
- herbicidal effect on rice flat sedge (E) ([15]; 320 g/ha): 3 (Herbicidal rate of 40% or more and less than 70%)
- herbicidal effect on Chinese sprangletop (D) ([16]; 320 g/ha): 4 (Herbicidal rate of 70% or more and less than 90%)
- herbicidal effect on L: windgrass (evaluation grade 0-5) [17, 21]: 5 (Herbicidal rate of 90% or more (almost completely withered))
- herbicidal effect on K: Italian ryegrass (evaluation grade 0-5) [18, 21]: 3 (Herbicidal rate of 40% or more and less than 70%)
